Data published in patent publication US20060074073A1, “Therapeutic combinations comprising poly (ADP-ribose) polymerases inhibitor” (AGOURON PHARMACEUTICALS, INC., priority 2004, published 2006).
Marks after values point to notes of the source that are not given here.

Columns and labels:
SW620 xenograft = experiment: In vivo antitumor efficacy with irinotecan, SW620 xenograft; design: species or system mice; details: SW620, once weekly × 3
Description: In no combination study was antagonism observed.

PARP [1] = experiment: Inhibition of MNNG-induced cellular NAD depletion and poly-ADP-ribose polymer formation in A549 cells; assay type: cell-based; details: for NAD (% DMSO) / Polymer (% MNNG): MNNG 25 μM
PARP [2] = experiment: Inhibition of cellular NAD consumption in P388 mouse leukemia cells after PARP activation; assay type: cell-based; details: PARP activated by MNNG, hydrogen peroxide or gamma irradiation, data not shown
Description: (§1) After DNA damage, cellular NAD is rapidly incorporated into poly-ADP-ribose polymer.

PARP [3] = experiment: Inhibition of cellular NAD consumption in mouse peripheral blood lymphocytes after PARP activation; assay type: cell-based; details: PARP activated by MNNG, hydrogen peroxide or gamma irradiation, data not shown
Description: as §1

Human protein binding = assay type: in vitro ADME
Experimental: This value was determined from the target effect (IC89) for inhibition of cellular NAD^+ depletion and poly-ADP-ribose polymer formation and adjusted for protein binding. […] II. Pharmaceutical Combinations of the Present Invention and Their Use

[4] = IV pharmacokinetics in dogs; details: Beagle, in vivo, dog
[5] = IV pharmacokinetics in monkeys; details: cynomolgus monkey, in vivo
LoVo xenografts = experiment: Ex-vivo clonogenic assay of irradiated LoVo xenografts; assay type: in vivo
Experimental: 24 h later tumors were excised, disaggregated to obtain single cell suspensions and plated for colony forming assay. […] The SF for the 15 mg/kg and 30 mg/kg IR combinations equated to that which would have been achieved using radiation doses of 8 Gy or 9.5 Gy, giving dose modification factors (DMF) of 1.6 and 1.9 respectively.

[6] = 15 mg/kg single IV dose (free base) as glucuronate salt
[7] = 15 mg/kg single IV dose as glucuronate salt
[8] = 15 mg/kg single IV dose as glucuronate salt, read-out: Vss

**Q.** For `CNCc1ccc(-c2[nH]c3cc(F)cc4c3c2CCNC4=O)cc1.O=C[C@H](O)[C@@H](O)[C@H](O)[C@H](O)C(=O)O` [compound of formula 1 glucuronate salt], which “Enhancement (%)” value (SW620 xenograft; irinotecan 25 mg/kg i.p. + 0.05 mg/kg i.p. (glucuronate salt)) is on record?
**A.** 700%

**Q.** And the “Enhancement (%)” value (SW620 xenograft; irinotecan 25 mg/kg i.p. + 0.15 mg/kg i.p. (glucuronate salt))?
**A.** 1100^f %

**Q.** What about the “Enhancement (%)” value (SW620 xenograft; irinotecan 25 mg/kg i.p. + 0.5 mg/kg i.p. (glucuronate salt)) of the same compound?
**A.** 1100^f %

**Q.** For `CNCc1ccc(-c2[nH]c3cc(F)cc4c3c2CCNC4=O)cc1` [compound of formula 1, 8-fluoro-2-{4-[(methylamino)methyl]phenyl}-1,3,4,5-tetrahydro-6H-azepino[5,4,3-cd]indol-6-one], which “inhibition of MNNG-induced NAD depletion” value (PARP [1]; 50 nM) is on record?
**A.** 93%

**Q.** And the “inhibition of poly-ADP-ribose polymer formation” value (PARP [1]; 50 nM)?
**A.** 95%

**Q.** What about the “NAD (% DMSO)” value (PARP [1]; compound 0.0005 μM) of the same compound?
**A.** 77 % DMSO

**Q.** And the “Polymer (% MNNG)” value (PARP [1]; compound 0.0005 μM)?
**A.** 40 % MNNG

**Q.** And the “NAD (% DMSO)” value (PARP [1]; compound 0.005 μM)?
**A.** 95 % DMSO

**Q.** What about the “Polymer (% MNNG)” value (PARP [1]; compound 0.005 μM) of the same compound?
**A.** 11 % MNNG

**Q.** And the “NAD (% DMSO)” value (PARP [1]; compound 0.05 μM)?
**A.** 96 % DMSO

**Q.** What about the “Polymer (% MNNG)” value (PARP [1]; compound 0.05 μM) of the same compound?
**A.** 5 % MNNG

**Q.** And the “NAD (% DMSO)” value (PARP [1]; compound 0.1 μM)?
**A.** 97 % DMSO

**Q.** What about the “Polymer (% MNNG)” value (PARP [1]; compound 0.1 μM) of the same compound?
**A.** 4 % MNNG

**Q.** And the “NAD (% DMSO)” value (PARP [1]; compound 0.4 μM)?
**A.** 97 % DMSO

**Q.** What about the “Polymer (% MNNG)” value (PARP [1]; compound 0.4 μM) of the same compound?
**A.** 4 % MNNG

**Q.** And the “inhibition of cellular poly-ADP-ribose formation” value (PARP [1]; MNNG-induced, 5 nM)?
**A.** 89%

**Q.** What about the “inhibition of PARP catalytic activity (cellular NAD consumption)” value (PARP [2]) of the same compound?
**A.** inhibits PARP catalytic activity

**Q.** And the “inhibition of PARP catalytic activity (cellular NAD consumption)” value (PARP [3])?
**A.** inhibits PARP catalytic activity

**Q.** And the fraction unbound (Human protein binding; human, plasma, concentrations between 0.05 to 25 nM)?
**A.** 0.274

**Q.** What about the “plasma concentration from 5 nM target effect corrected for human protein binding” value (Human protein binding; target effect IC89 in A549 cells) of the same compound?
**A.** 5.9 ng/mL

**Q.** What about the AUC(0-inf) [4, 6] of the same compound?
**A.** 4100 ± 500 ng·h/mL

**Q.** What about the clearance [4, 7] of the same compound?
**A.** 61.8 ± 8.2 mL/min/kg

**Q.** What about the half-life [4, 7] of the same compound?
**A.** 4.5 ± 1.1 h

**Q.** And the Vd [4, 8]?
**A.** 15.2 ± 2.3 L/kg

**Q.** What about the AUC(0-inf) [5, 6] of the same compound?
**A.** 7400 ± 700 ng·h/mL

**Q.** And the clearance [5, 7]?
**A.** 33.8 ± 3.1 mL/min/kg

**Q.** And the half-life [5, 7]?
**A.** 5.2 ± 0.8 h

**Q.** And the Vd [5, 8]?
**A.** 7.2 ± 1.2 L/kg

**Q.** What about the “DMF, dose modification factor” value (LoVo xenografts; 15 mg/kg + 5 Gy) of the same compound?
**A.** 1.6

**Q.** What about the “SF, surviving fraction” value (LoVo xenografts; 15 mg/kg + 5 Gy) of the same compound?
**A.** 0.06

**Q.** What about the “radiation dose that would give the same SF” value (LoVo xenografts; 15 mg/kg + 5 Gy) of the same compound?
**A.** 8 Gy

**Q.** What about the “DMF, dose modification factor” value (LoVo xenografts; 30 mg/kg + 5 Gy) of the same compound?
**A.** 1.9

**Q.** What about the “SF, surviving fraction” value (LoVo xenografts; 30 mg/kg + 5 Gy) of the same compound?
**A.** 0.03

**Q.** And the “radiation dose that would give the same SF” value (LoVo xenografts; 30 mg/kg + 5 Gy)?
**A.** 9.5 Gy
